The source of these data is patent publication US20090105329A1 (priority 2005, published 2009).

Entries after “also recorded” stand apart in the source; their conditions may differ. Like-named read-outs stand apart in the source and are kept apart here.

Series [1] can be described thus: Plasma pharmacokinetics of SAHA and its two major metabolites (LC-MS/MS) in the phase I study. The format is in vivo, human. As for the experimental part: Samples are assayed by the HPLC method (Kelly W K, Richon V M, O'Connor O, et al. Clin. Cancer Res. 2003; 9:3578-88) or by LC/MS assay. […] Quantitation of Paclitaxel and total platinum concentrations is done by validated methodology. […] Compartmental modeling is done with the computer program ADAPT II. Non-compartmental modeling is done with the […] function as implemented by the computer program […]. […] The time that Paclitaxel concentrations remain above 0.05 μM is determined using a limited sampling strategy with the 24-hour sample. […] Methods: Eligible patients were those with advanced solid malignancies who were candidates for combination therapy with Carboplatin and Paclitaxel. […] Carboplatin and Paclitaxel were given on Day 1 of each cycle.

Series [2] has as its system patients with advanced solid malignancies. Nature of the series: Phase I study of SAHA in combination with Carboplatin and Paclitaxel: dose-limiting and other toxicities. It is filed as in vivo, human. The conditions noted are these: in the combination. As for the experimental part: The study is designed to define dose-limiting and non-dose limiting toxicities associated with this combination, and to obtain evidence of anti-tumor activity.
Both Carboplatin and Paclitaxel are administered on Day 1 of each treatment cycle. […] Each treatment cycle lasts for 3 weeks.
Definition of dose-limiting toxicity (DLT): Toxicities must be attributable to the study drug(s) to constitute DLT. […] If baseline value is elevated prior to drug therapy, an increase is not considered a DLT unless there is an elevation by more than two grades, and it is of clinical significance. Management and dose modifications associated with the above adverse events are outlined below.
Dosing delays and dose modifications: No intra-patient dose escalation is used. Chemotherapy doses may be reduced for hematological and non-hematological effects. Dose adjustments are to be made according to the system showing the greatest degree of toxicity. Toxicity is graded using the National Cancer Institute Common Toxicity Criteria (NCI CTC) for adverse events (version 3.0). Treatment may be delayed no more than two weeks to allow recovery from toxicity. Dose adjustments for toxicity are made according to the following guidelines.
Methods: Eligible patients were those with advanced solid malignancies who were candidates for combination therapy with Carboplatin and Paclitaxel. […] Carboplatin and Paclitaxel were given on Day 1 of each cycle.

Series [3] shares this test system. The note with it: on this schedule; cited from earlier work.
For series [4], the system named is carcinogen-induced (N-methylnitrosourea) mammary tumors. The note with it: rats, SAHA in their diet over the 130 days of the study; cited from earlier work.
For series [5] the following is noted: oral SAHA with food; cited from earlier work.
[6] abbreviates: human, plasma, po, oral SAHA, patients, plasma, Example 8, read-out: t1/2 (elimination half life) (converted).

With `O=C(O)CCC(=O)Nc1ccccc1` [4-Anilino-4-oxobutanoic acid], the half-life in series [1] (human, plasma, po, Example 9, further results, patients after oral SAHA, read-out: t1/2 of acid metabolite (converted)) is 246 ± 78 min; in series [1] (setting [6]), roughly 360 min. Moreover, in series [1] (metabolite in plasma after oral SAHA, fold greater than SAHA Cmax), the “Cmax relative to SAHA Cmax” value is listed as 1.5-7 fold.
Consider `[NH2][Pt]1([NH2])[O]C(=O)C2(CCC2)C(=O)[O]1` [Carboplatin, platinum, diammine [1,1-cyclobutane-dicarboxylato (2-)-0,0′]-, (SP-4-2)], for which the “Dose recommended for phase II studies” value in series [2] (Day 1, 3 week cycles) is 6 AUC.
The same measure, in the same setting: next, `CC(=O)O[C@H]1C(=O)[C@@]2(C)[C@H]([C@H](OC(=O)c3ccccc3)[C@]3(O)C[C@H](OC(=O)[C@H](O)[C@@H](NC(=O)c4ccccc4)c4ccccc4)C(C)=C1C3(C)C)[C@]1(OC(C)=O)CO[C@@H]1C[C@@H]2O` [Paclitaxel, 5-beta, 20-epoxy-1,2-alpha, 4,7-beta, 10-beta, 13-alpha-hexahydroxytax-11-en-9-one 4,10-diacetate 2-benzoate 13-ester with (2R,3S)—N-benzoyl-3-phenylisoserine]: 200 mg/m^2.
In the case of `O=C(CCCCCCC(=O)Nc1ccccc1)NO[C@@H]1O[C@H](C(=O)O)[C@@H](O)[C@H](O)[C@H]1O` [SAHA glucuronide], the “t1/2 (elimination half life)” value in series [1] (human, in vivo, po) was “approximately 2 h”.
With `O=C(CCCCCCC(=O)Nc1ccccc1)NO` [SAHA, N-Hydroxy-N′-phenyl octanediamide], in series [3], the “RP2D of single agent SAHA” value is 400 mg. For the same compound, the “Dose recommended for phase II studies” value in series [2] (PO QD (Days 1-14), 3 week cycles) is 400 mg. Moreover, the “development and continued growth of carcinogen-induced (N-methylnitrosourea) mammary tumors” value in series [4] is “effective at inhibiting”. Moreover, the “effect of Carboplatin and Paclitaxel on SAHA pharmacokinetics” value in series [1] (Day -4 (SAHA alone) vs Day 1 (with Carboplatin and Paclitaxel)) is given as “did not alter SAHA pharmacokinetics; also recorded: not altered”. Also, the “SAHA clearance on Day 1 as compared to Day -4” value in series [1] (Example 9, most recent data) is “potential decreased clearance”. Further, in series [1] (setting [6]), the half-life was 96 ± 30 min. The Tmax in series [1] (human, plasma, po, read-out: Tmax (time to maximum plasma or serum concentration)) was in the range of 0.5 to 2 h. The AUC versus dose entry in series [1] (oral SAHA 200-400 mg, patients) is recorded as “increased with dose”. In series [1] (oral SAHA, patients), the absorption entry is “rapidly absorbed”. For the same compound, the “CL/F (clearance/bioavailability)” value in series [1] (oral SAHA, patients, Example 8) was found to be 5.8 ± 1.7 L/min. Moreover, the “bioavailability when taken with food” value in series [5] was “does not alter the bioavailability”.
